Data from publication PMC6017838, “Synthesis and Anticandidal Activity of New Imidazole-Chalcones” (Molecules : A Journal of Synthetic Chemistry and Natural …, 2018).
Values after ≈ are worked out from the molar mass of the structure shown.

What was measured:
C. albicans (ATCC 24433) = assay: Anticandidal activity, EUCAST EDef 7.1 broth dilution with resazurin; format: cell-based; conditions: Candida albicans, ATCC24433, RPMI pH 7, 24 h
Description: (§1) Synthesized compounds (3a–3o) were evaluated for anticandidal activity against C. albicans (ATCC 24433), C. krusei (ATCC 6258), C. parapsilosis (ATCC 22019), and C. glabrata (ATCC 90030). MIC50 values were determined via fluorometric measurements, using resazurin solution [24, 25]. Ketoconazole and fluconazole were used as a standard drug in the activity test.
(§2) Microbiological studies were performed according to the EUCAST definitive (EDef 7.1) method for C. albicans (ATCC 24433), C. krusei (ATCC 6258), C. parapsilosis (ATCC 22019), and C. glabrata (ATCC 90030). Fluconazole and ketoconazole were used as control drugs. Two MIC readings were carried out for each chemical agent. The yeasts were maintained in RPMI after overnight incubation at 37 °C. The inocula of test microorganisms was adjusted to match the turbidity of a MacFarland 0.5 standard tube as determined with a spectrophotometer, and the final inoculum size was 0.5–2.5 × 10^5 cfu/mL for the antifungal assay. Testing was carried out in RPMI at pH = 7, and the two-fold serial dilutions technique was applied. The last well on the microplates containing only inoculated broth was kept as a control, and the last well with no growth of microorganism was recorded to represent the MIC50 expressed in μg/mL. For the antifungal assays, the compounds were dissolved in DMSO. Further dilutions of the compounds and standard drugs in the test medium were prepared at the required quantities of 800, 400, 200, 100, 50, 25, 12.5, 6.25, 3.125, 1.5625, and 0.78 μg/mL concentrations RPMI. The completed plates were incubated for 24 h. At the end of the incubation, resazurin (20 µg/mL) was added into each well to control the growth in the wells. Completed plates were incubated for 2 h. MIC50 values were determined using a microplate reader at […].

C. glabrata (ATCC 90030) = assay: as above; format: cell-based; conditions: Nakaseomyces glabratus, ATCC90030, RPMI pH 7, 24 h
Description: as §1, §2

C. krusei (ATCC 6258) = assay: as above; format: cell-based; conditions: Pichia kudriavzevii, ATCC6258, RPMI pH 7, 24 h
Description: as §1, §2

[1] = tested on: C. parapsilosis (ATCC 22019); assay: as above; format: cell-based; conditions: Lodderomyces parapsilosis, ATCC22019, RPMI pH 7, 24 h
Description: as §1, §2

[2] = tested on: ergosterol biosynthesis in C. krusei; assay: Quantification of ergosterol level by LC-MS-MS; format: cell-based; conditions: Pichia kudriavzevii, mean ± SD, quadruplicate
Source text: Sterols are neutral lipids of eukaryotic cells, among which ergosterol is the main constituent of fungal membranes. Ergosterol has biological functions such as membrane fluidity, regulation, activity and distribution of integral membrane proteins, and control of the cell cycle. The critical role of sterols in maintenance of cell membranes make ergosterol and its biosynthetic pathway essential for fungal growth, and a primary target for antifungal drugs to treat fungal infections. From this point of view, we performed an LCMSMS (Shimadzu LCMS 8040, Kyoto, Japan) method for quantitative determination of ergosterol content of C. krusei as reported in our recent study. Compounds 3a–3d, displaying the best anticandidal activity and low cytotoxic effect, and reference agents ketoconazole and fluconazole were tested at concentrations of 0.78–3.12 µg/mL. Ergosterol standard (Product No.: 45480, Sigma-Aldrich, Darmstadt, Germany) was used for the quantification of ergostrerol in samples, which were treated with reference agents and Compounds 3a–3d. Ergosterol quantity of the negative control was considered as 100%. Quadruplicate analyses were performed for all concentrations and the obtained data were expressed as mean ± standard deviation (SD) (Table 2).
Extraction of total sterols from C. krusei was performed as recorded by Breivik and Owades. Quantification of ergosterol level in this extract was carried out in accordance with our recently described method.

[3] = tested on: NIH/3T3 mouse embryonic fibroblast cell line; assay: MTT cytotoxicity test; format: cell-based; conditions: NIH3T3, cytotoxic activity, NIH/3T3 cell line
Description: The main cause of failure in all stages of the new drug development process is toxicity. Early identification of toxicities of drug candidates is very important in terms of drug development studies. […] Cytotoxicity of selected compounds (3a–3d), displaying strong anticandidal activity and good predicted pharmacokinetics, was determined against NIH/3T3 mouse embryonic fibroblast cell lines (ATCC CRL1658).
Cytotoxicity was tested using the NIH/3T3 mouse embryonic fibroblast cell line (ATCC® CRL-1658™, London, UK). NIH/3T3 cells were incubated according to the supplier’s recommendations. NIH/3T3 cells were seeded at 1 × 10^4 cells into each well of the 96-well plates. The MTT assay was performed as previously described. The compounds were tested between 800 and 0.78 µg/mL concentrations. Inhibition % was calculated for each concentration according to the formula below, and IC50 values were determined by plotting a dose–response curve of inhibition % versus compound concentrations tested.
% inhibition = 100 − (mean sample × 100/mean solvent).

| Structure (SMILES) | MIC50 (C. albicans (ATCC 24433)) [µg/mL] | MIC50 (C. glabrata (ATCC 90030)) [µg/mL] | MIC50 (C. krusei (ATCC 6258)) [µg/mL] | MIC50 [1] [µg/mL] | melting point [°C] | inhibition at 0.78 µg/mL [2] [%] | inhibition at 1.56 µg/mL [2] [%] | inhibition at 3.12 µg/mL [2] [%] | IC50 [3] [µg/mL] |
| --- | --- | --- | --- | --- | --- | --- | --- | --- | --- |
| CCN1CCN(c2ccc(C=CC(=O)c3ccc(-n4ccnc4)cc3)cc2)CC1 [Compound 3m, 1-(4-(1H-Imidazol-1-yl)phenyl)-3-(4-(4-ethylpiperazin-1-yl)phenyl)prop-2-en-1-one] | 50 (≈ 129 µM) | 12.5 (≈ 32.3 µM) | 12.5 (≈ 32.3 µM) | 25 (≈ 64.7 µM) | 188 to 189 |  |  |  |  |
| CC(=O)N1CCN(c2ccc(OCC3COC(Cn4ccnc4)(c4ccc(Cl)cc4Cl)O3)cc2)CC1 (stereo not drawn) [Ketoconazole, reference compound] | 0.78 (≈ 1.47 µM) | 1.56 (≈ 2.94 µM) | 1.56 (≈ 2.94 µM) | 1.56 (≈ 2.94 µM) |  | 61 ± 2.94 | 73.1 ± 4.16 | 84.6 ± 3.01 |  |
| CN(C)CCN1CCN(c2ccc(C=CC(=O)c3ccc(-n4ccnc4)cc3)cc2)CC1 [Compound 3n, 1-(4-(1H-Imidazol-1-yl)phenyl)-3-(4-(4-(2-(dimethylamino)ethyl)piperazin-1-yl)phenyl)prop-2-en-1-one] | 50 (≈ 116 µM) | 12.5 (≈ 29.1 µM) | 12.5 (≈ 29.1 µM) | 12.5 (≈ 29.1 µM) | 146 to 149 |  |  |  |  |
| COc1ccc(Oc2ccc(C=CC(=O)c3ccc(-n4ccnc4)cc3)cc2)cc1 [Compound 3c, 1-(4-(1H-Imidazol-1-yl)phenyl)-3-(4-(4-methoxyphenoxy)phenyl)prop-2-en-1-one] | 1.56 (≈ 3.93 µM) | 0.78 (≈ 1.97 µM) | 0.78 (≈ 1.97 µM) | 0.78 (≈ 1.97 µM) | 168 to 170 | 71.1 ± 4.9 | 78.2 ± 2.7 | 84.3 ± 4.65 | 436 ± 1.03 (≈ 1100 µM) |
| O=C(C=Cc1ccc(N2CCCCC2)cc1)c1ccc(-n2ccnc2)cc1 [Compound 3g, 1-(4-(1H-Imidazol-1-yl)phenyl)-3-(4-(piperidin-1-yl)phenyl)prop-2-en-1-one] | 50 (≈ 140 µM) | 12.5 (≈ 35 µM) | 25 (≈ 69.9 µM) | 12.5 (≈ 35 µM) | 198 to 199 |  |  |  |  |
| OC(Cn1cncn1)(Cn1cncn1)c1ccc(F)cc1F [Fluconazole, reference compound] | 0.78 (≈ 2.55 µM) | 1.56 (≈ 5.09 µM) | 1.56 (≈ 5.09 µM) | 0.78 (≈ 2.55 µM) |  | 61.7 ± 1.7 | 70.1 ± 3.22 | 82.1 ± 4.45 |  |
| CC1CCN(c2ccc(C=CC(=O)c3ccc(-n4ccnc4)cc3)cc2)CC1 [Compound 3i, 1-(4-(1H-Imidazol-1-yl)phenyl)-3-(4-(4-methylpiperidin-1-yl)phenyl)prop-2-en-1-one] | 50 (≈ 135 µM) | 12.5 (≈ 33.6 µM) | 12.5 (≈ 33.6 µM) | 12.5 (≈ 33.6 µM) | 189 to 191 |  |  |  |  |
| O=C(C=Cc1ccc(N2CCC(Cc3ccccc3)CC2)cc1)c1ccc(-n2ccnc2)cc1 [Compound 3k, 1-(4-(1H-Imidazol-1-yl)phenyl)-3-(4-(4-benzylpiperidin-1-yl)phenyl)prop-2-en-1-one] | 50 (≈ 112 µM) | 25 (≈ 55.9 µM) | 25 (≈ 55.9 µM) | 12.5 (≈ 27.9 µM) | 178 to 180 |  |  |  |  |
| CC1CCCN(c2ccc(C=CC(=O)c3ccc(-n4ccnc4)cc3)cc2)C1 (stereo not drawn) [Compound 3h, 1-(4-(1H-Imidazol-1-yl)phenyl)-3-(4-(3-methylpiperidin-1-yl)phenyl)prop-2-en-1-one] | 50 (≈ 135 µM) | 12.5 (≈ 33.6 µM) | 25 (≈ 67.3 µM) | 12.5 (≈ 33.6 µM) | 163 to 165 |  |  |  |  |
| CN1CCN(c2ccc(C=CC(=O)c3ccc(-n4ccnc4)cc3)cc2)CC1 [Compound 3l, 1-(4-(1H-Imidazol-1-yl)phenyl)-3-(4-(4-methylpiperazin-1-yl)phenyl)prop-2-en-1-one] | 50 (≈ 134 µM) | 12.5 (≈ 33.6 µM) | 25 (≈ 67.1 µM) | 12.5 (≈ 33.6 µM) | 205 to 207 |  |  |  |  |
| O=C(C=Cc1ccc(N2CCCC2)cc1)c1ccc(-n2ccnc2)cc1 [Compound 3e, 1-(4-(1H-Imidazol-1-yl)phenyl)-3-(4-(pyrrolidin-1-yl)phenyl)prop-2-en-1-one] | 50 (≈ 146 µM) | 12.5 (≈ 36.4 µM) | 12.5 (≈ 36.4 µM) | 12.5 (≈ 36.4 µM) | 186 to 188 |  |  |  |  |
| Cc1ccc(Sc2ccc(C=CC(=O)c3ccc(-n4ccnc4)cc3)cc2)cc1 [Compound 3b, 1-(4-(1H-Imidazol-1-yl)phenyl)-3-(4-(p-tolylthio)phenyl)prop-2-en-1-one] | 3.12 (≈ 7.88 µM) | 3.12 (≈ 7.88 µM) | 0.78 (≈ 1.97 µM) | 0.78 (≈ 1.97 µM) | 168 to 169 | 68.6 ± 1.98 | 81.6 ± 4.07 | 83.5 ± 3.18 | > 500 |
| CN(C)CCCN1CCN(c2ccc(C=CC(=O)c3ccc(-n4ccnc4)cc3)cc2)CC1 [Compound 3o, 1-(4-(1H-Imidazol-1-yl)phenyl)-3-(4-(4-(3-(dimethylamino)propyl)piperazin-1-yl)phenyl)prop-2-en-1-one] | 50 (≈ 113 µM) | 12.5 (≈ 28.2 µM) | 12.5 (≈ 28.2 µM) | 12.5 (≈ 28.2 µM) | 138 to 141 |  |  |  |  |
| CC1CC(C)CN(c2ccc(C=CC(=O)c3ccc(-n4ccnc4)cc3)cc2)C1 (stereo not drawn) [Compound 3j, 1-(4-(1H-Imidazol-1-yl)phenyl)-3-(4-(3,5-dimethylpiperidin-1-yl)phenyl)prop-2-en-1-one] | 50 (≈ 130 µM) | 12.5 (≈ 32.4 µM) | 25 (≈ 64.8 µM) | 25 (≈ 64.8 µM) | 160 to 161 |  |  |  |  |
| O=C(C=Cc1ccc(N2CCOCC2)cc1)c1ccc(-n2ccnc2)cc1 [Compound 3f, 1-(4-(1H-Imidazol-1-yl)phenyl)-3-(4-morpholinophenyl)prop-2-en-1-one] | 50 (≈ 139 µM) | 12.5 (≈ 34.8 µM) | 12.5 (≈ 34.8 µM) | 12.5 (≈ 34.8 µM) | 214 to 215 |  |  |  |  |
